Measurements: patent US10703748B2, “Diazanaphthalen-3-yl carboxamides and preparation and use thereof” (Samumed, LLC, priority 2017, dated 2020)
Like-named read-outs stand apart in the source and are kept apart here.

How the values were obtained:
[1] = test system: SW480 colon carcinoma cells; experiment: Cell viability assay (CellTiter-Glo); conditions: for inhibition at 10 µM: SW480, read-out: percent inhibition at 10 μM
DYRK1A kinase = DYRK1A kinase (Homo sapiens, UniProt Q13627); experiment: DYRK1A kinase activity (Ser/Thr 18 peptide Z-lyte FRET assay); assay type: biochemical; conditions: recombinant DYRK1A, 30 μM ATP, one hour at room temperature;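 also: kinase activity read as coumarin/fluorescein emission ratio after development step, with unphosphorylated and phosphorylated peptide forms setting 0% and 100% controls, values from dose-response curves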
[2] = test system: secreted cytokines TNFα, IL-6 and KC-GRO; experiment: Secreted cytokines in Lipopolysaccharide-stimulated BV-2 cells (Table 9 does not say which cytokine); assay type: cell-based, mouse; conditions: read-out: EC50
GSK3β kinase = GSK3β kinase (Homo sapiens, UniProt P49841); experiment: GSK3β kinase activity (Ser/Thr 09 peptide Z-lyte FRET assay); assay type: biochemical; conditions: recombinant kinase, 46 μM ATP, one hour at room temperature; read-out: EC50
IL-6 = IL-6 inhibition in LPS-stimulated human peripheral blood mononuclear cells (HTRF); conditions: for inhibition at 10 µM: read-out: percentage in parentheses after EC50 >10
Protocol: Each compound was dissolved in DMSO (Catalog # D8418-100 ml, Sigma-Aldrich, St. Louis, Mo.) as a 10 mM stock and used to prepare compound source plates. […] After 22 hour incubation, a mixture of anti-IL6 XL665 and anti-IL-6 Cryptate diluted in reconstitution buffer (Catalog #62IL6PEC, Cisbio Inc., Bedford, Mass.) was added to each well. […] All samples were processed in duplicate. […] EC50 was determined using software generated by Dotmatics Limited (Windhill Bishops Stortford Herts, UK) using the Levenberg-Marquardt 4 parameter fitting procedure with finite different gradients.

[3] = test system: Wnt-responsive Sp5-Luc reporter in SW480 colon carcinoma cells; experiment: Screening assay for Wnt activity (Sp5-Luc reporter gene assay); conditions: for inhibition at 10 µM: SW480, read-out: percent inhibition at 10 μM
Protocol: The screening assay for Wnt activity is described as follows.
SW480 colon carcinoma cells were transduced with a lentiviral vector expressing luciferase with a human Sp5 promoter consisting of a sequence of eight TCF/LEF binding sites. […] These stably transduced SW480 cells were expanded in cell culture and used for all further screening activities. Each compound was dissolved in DMSO as a 10 mM stock and used to prepare compound source plates. Serial dilution (1:3, 10-point dose-response curves starting from 10 μM) and compound transfer was performed using the ECHO 550 (Labcyte, Sunnyvale, Calif.) into 384-well white solid bottom assay plates (Greiner Bio-One) with appropriate DMSO backfill for a final DMSO concentration of 0.1%. […] Following incubation, 15 μl of BriteLite Plus luminescence reagent (Perkin Elmer) was added to each well of the 384-well assay plates. The plates were placed on an orbital shaker for 2 min and then luminescence was quantified using the Envision (Perkin Elmer) plate reader.

[4] = test system: Tau phosphorylation at Ser396 (pSer396); experiment: Tau phosphorylation at Ser396 (pSer396) in SH-SY5Y cells, ELISA / western blot; assay type: cell-based, human; conditions: SH-SY5Y cells, overnight (16-18 h), read-out: pSer396 Tau EC50;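 also: decrease in pSer396 Tau measured in lysates of treated cells by colorimetric ELISA or chemiluminescent western blot, same pSer396 antibody for both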
Protocol: Two days before treatment, cells were seeded onto 96 well plates at 5×10^4 cells/well.
The above synthesized compounds were screened using the cell assay procedure to assess decrease Tau phosphorylation at Ser396 (pSer396) described below.
Cells were lysed with RIPA buffer complemented with phosphatase and protease inhibitors then lysates were spun down at 12,000 g for 10 min to remove any cellular debris.

[5] = test system: α-smooth muscle actin (aSMA) positive LL29 cells; experiment: Inhibition of the fibrotic process: αSMA staining in TGF-β1 treated LL29 fibroblasts from IPF patients; conditions: for inhibition at 10 µM: read-out: percentage in parentheses after EC50 >10

Chain of GSK3β kinase (P49841 whole entry): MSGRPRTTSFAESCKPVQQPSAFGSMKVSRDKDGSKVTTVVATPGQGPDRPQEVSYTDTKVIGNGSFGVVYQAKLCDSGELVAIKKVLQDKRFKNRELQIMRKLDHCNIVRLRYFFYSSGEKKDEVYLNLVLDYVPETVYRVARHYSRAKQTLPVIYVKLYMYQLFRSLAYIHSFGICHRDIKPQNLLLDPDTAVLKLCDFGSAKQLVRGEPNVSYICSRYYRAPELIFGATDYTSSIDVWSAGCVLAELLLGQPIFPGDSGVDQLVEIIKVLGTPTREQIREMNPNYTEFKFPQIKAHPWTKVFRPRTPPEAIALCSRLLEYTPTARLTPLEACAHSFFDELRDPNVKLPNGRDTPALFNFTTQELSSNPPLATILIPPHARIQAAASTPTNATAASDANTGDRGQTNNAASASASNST

Structure (SMILES)	EC50 ([1]; Homo sapiens, SW480, 96 h) [nM]	inhibition at 10 µM ([1]; Homo sapiens) [%]	EC50 (DYRK1A kinase) [nM]	EC50 ([2]; Mus musculus, BV-2, 5 h) [nM]	EC50 (GSK3β kinase) [nM]	EC50 (IL-6; Homo sapiens, PBMC, 22 h) [nM]	inhibition at 10 µM (IL-6; Homo sapiens, PBMC) [%]	EC50 ([3]; Homo sapiens, SW480) [nM]	EC50 ([4]; Homo sapiens) [nM]	EC50 ([5]; Homo sapiens, Fibroblast, 96 h) [nM]	inhibition at 10 µM ([5]; Homo sapiens, Fibroblast) [%]	inhibition at 10 µM ([3]; Homo sapiens) [%]	EC50 ([1]; SW480 cells, four days, CellTiter-Glo) [nM]	EC50 ([2]; BV-2 cells, LPS 250 ng/mL 5 hours, compounds overnight, 10 μM to […], cytokine not named in Table 9) [nM]	EC50 (IL-6; huPBMCs, LPS 50 ng/mL, 22 hours, curves starting from 10 μM) [nM]	percentage in parentheses after EC50 >10 (IL-6; huPBMCs, LPS, given beside >10 μM, meaning not given) [%]	EC50 ([3]; SW480 Sp5-Luc reporter cells, 36 to 48 hours) [nM]	percent inhibition at 10 μM ([3]; at 10 μM, given for EC50 of >10 μM, SW480 Sp5-Luc reporter) [%]	EC50 [4] [nM]	EC50 ([5]; LL29 fibroblasts from IPF patients, TGF-β1 20 ng/mL, 4 days, curves from 10 μM to 0.94 nM) [nM]
CN(CC(=O)Nc1cc2cc(-c3cnn(C)c3)ncc2cn1)C1CCC1 [Compound 3683, 2-(Cyclobutyl(methyl)amino)-N-(6-(1-methyl-1H-pyrazol-4-yl)-2,7-naphthyridin-3-yl)acetamide]	> 10000	38.8	8	> 10000	10	> 10000	4.6	603	179	597	–	–	–	–	–	–	–	–	–	–
CNC(=O)c1ccc(C(=O)Nc2ncc3ccc(-c4cn(C)nn4)cc3n2)cn1 [Compound 1278, N^2-Methyl-N^5-(7-(1-methyl-1H-1,2,3-triazol-4-yl)quinazolin-2-yl)pyridine-2,5-dicarboxamide]	8530	–	7	7200	134	> 10000	3	3700	5050	> 10000	35.9	–	–	–	–	–	–	–	–	–
CC(C)CN1CCC(C(=O)Nc2ncc3ccc(-c4cnn(C)c4)cc3n2)CC1 [Compound 923, 1-isobutyl-N-(7-(1-methyl-1H-pyrazol-4-yl)quinazolin-2-yl)piperidine-4-carboxamide]	> 10000	33.9	44	1070	204	> 10000	10.5	> 10000	1300	2720	–	34.8	–	–	–	–	–	–	–	–
Cn1cc(-c2ccc3cnc(NC(=O)C4CC4)cc3n2)cn1 [Compound 2, N-(2-(1-Methyl-1H-pyrazol-4-yl)-1,6-naphthyridin-7-yl) cyclopropanecarboxamide]	2470	–	18	1700	20	3160	–	2940	396	677	–	–	–	–	–	–	–	–	–	–
CC(C(=O)Nc1cc2cc(-c3cnn(C)c3)ncc2cn1)N1CCCCC1 (stereo not shown) [Compound 3698, N-(6-(1-Methyl-1H-pyrazol-4-yl)-2,7-naphthyridin-3-yl)-2-(piperidin-1-yl) propanamide]	6900	–	64	4800	9	> 10000	4.6	288	76	1070	–	–	–	–	–	–	–	–	–	–
CC(C)Oc1ccc(C(=O)Nc2cc3nc(-c4cnc5n4CCNC5)ccc3cn2)cc1 [Compound 523, 4-Isopropoxy-N-(2-(5,6,7,8-tetrahydroimidazo[1,2-a]pyrazin-3-yl)-1,6-naphthyridin-7-yl)benzamide]	814	–	4	799	362	> 10000	3.7	530	3940	1630	–	–	–	–	–	–	–	–	–	–
C[C@H]1CCCN1CC(=O)Nc1ncc2ccc(-c3cnn(C)c3)cc2n1 [Compound 954, (S)—N-(7-(1-Methyl-1H-pyrazol-4-yl)quinazolin-2-yl)-2-(2-methylpyrrolidin-1-yl)acetamide]	> 10000	45.1	69	–	195	> 10000	5.7	> 10000	1700	2140	–	29.6	–	–	–	–	–	–	–	–
Cn1ncc(-c2cc3cc(NC(=O)c4ccnc(N5CCOCC5)c4)ncc3cn2)c1CN1CCOCC1 [Compound 3941, N-(6-(1-methyl-5-(morpholinomethyl)-1H-pyrazol-4-yl)-2,7-naphthyridin-3-yl)-2-morpholinoisonicotinamide]	2380	–	6	–	79	> 10000	5.5	1340	571	1190	–	–	–	–	–	–	–	–	–	–
Cn1cc(-c2ccc3cnc(NC(=O)c4ccc(OC5CCNCC5)cc4)nc3c2)nn1 [Compound 4573, N-(7-(1-Methyl-1H-1,2,3-triazol-4-yl)quinazolin-2-yl)-4-(piperidin-4-yloxy) benzamide]	2700	–	6	–	161	> 10000	9.6	3230	10000	> 10000	9.3	–	–	–	–	–	–	–	–	–
O=C(Nc1cc2cc(-c3cncc(NCC4(F)CNC4)n3)ncc2cn1)C1CC1 [Compound 4498, N-(6-(6-(((3-Fluoroazetidin-3-yl)methyl)amino)pyrazin-2-yl)-2,7-naphthyridin-3-yl)cyclopropanecarboxamide]	799	–	2	–	1	3090	–	383	37	436	–	–	–	–	–	–	–	–	–	–
Cc1nnc(-c2cc3cc(NC(=O)C4CCN(C(=O)c5ccccc5)CC4)ncc3cn2)s1 [Compound 4346, 1-Benzoyl-N-(6-(5-methyl-1,3,4-thiadiazol-2-yl)-2,7-naphthyridin-3-yl) piperidine-4-carboxamide]	> 10000	12.2	37	–	135	> 10000	2.4	> 10000	1540	> 10000	21.4	3.8	–	–	–	–	–	–	–	–
O=C(Nc1cc2nc(-c3cnn4c3CN(CCF)CC4)ccc2cn1)C1CCC(F)(F)CC1 [Compound 317]	–	–	–	–	–	–	–	–	–	–	–	–	3530	66	> 10000	8.0	> 10000	50.0	35	935
CC(C)OCCC(=O)Nc1ncc2ccc(-c3cncn3C)cc2n1 [Compound 1322, 3-Isopropoxy-N-(7-(1-methyl-1H-imidazol-5-yl)quinazolin-2-yl)propanamide]	> 10000	22.2	52	–	94	> 10000	5.9	1170	168	2000	–	–	–	–	–	–	–	–	–	–
O=C(Nc1ncc2ccc(-c3cncc(N[C@H]4CCNC[C@@H]4F)n3)cc2n1)C1CC1 [Compound 1785, N-(7-(6-(((3S,4S)-3-Fluoropiperidin-4-yl)amino)pyrazin-2-yl)quinazolin-2-yl)cyclopropanecarboxamide]	> 10000	34.3	7	–	135	> 10000	8.9	4270	5660	4000	–	–	–	–	–	–	–	–	–	–
O=C(Nc1ncc2ccc(-c3cncc(NCC4(F)CNC4)n3)cc2n1)C1CC1 [Compound 1777, N-(7-(6-(((3-Fluoroazetidin-3-yl)methyl)amino)pyrazin-2-yl)quinazolin-2-yl)cyclopropanecarboxamide]	> 10000	27.6	5	–	98	> 10000	2.4	> 10000	10000	> 10000	41.1	35.4	–	–	–	–	–	–	–	–
